Measurements as given in patent US7727952B2, “Methods for treating spinal and bulbar muscular atrophy using LHRH analogs” (priority 2002, dated 2010).
Entries after “also recorded” stand apart in the source; their conditions may differ.

Assays:
female AR-97Q mice = experiment: Administration of testosterone to female AR-97Q mice: symptoms (body weight, rotarod task, cage activity, survival rate, body size, foot prints); format: in vivo, mouse
Method: We analyzed rotarod task of mice by an Economex Rotarod (Colombus Instruments, USA) weekly during the light phase of the 12 h light/12 h dark cycle as described previously (Adachi et al., 2001). We performed three trials, and recorded the longest duration on the rod for every mouse. We stopped the timer when the mouse fell from the rod or after an arbitrary limit of 180 seconds.
We measured cage activity while each mouse was in a transparent acrylic cage (16×30×14 cm). We used an AB system (Neuroscience, Japan) with an infrared ray sensor monitor to measure spontaneous motor activity. We automatically totaled and recorded all measurements for 24 hours per week at 10-min intervals.
Male AR-97Q mice and their normal littermates were castrated or sham-operated via the abdominal route under ketamine-xylazine anesthesia (50 mg/kg ketamine and 10 mg/kg xylazine, i.p.) at 4 weeks of age. […] The control mice were given the same amount of sesame oil.

[1] = Serum testosterone radioimmunoassay in testosterone-administered female AR-97Q mice; format: in vivo, mouse; conditions: testosterone-administered female 97Q mice, control mice undetectable low level
[2] = Serum testosterone radioimmunoassay in Leuprorelin-administered male AR-97Q mice; format: in vivo, mouse; conditions: #4-6, n=4
Method: Leuprorelin was administrated as follows. 100 μg of Leuprorelin acetate was suspended in a solution containing D-mannitol, which was subcutaneously injected to the mice every two weeks from five weeks of age until the end of the analysis. To the control group, only suspension was administrated. […] That is to say, motor impairment assessed by rotarod and cage activity was far milder in the Leuprorelin-administrated male AR-97Q mice as compared with the control group, and motor dysfunction was hardly shown in the Leuprorelin-administrated group (FIGS. 5A, B, C and D).

[3] = The Leuproride Study Group 1984; cited from earlier work
male AR-97Q mice = experiment: Administration of Leuprorelin to male AR-97Q mice: symptoms (body weight, rotarod task, cage activity, survival rate, body size, foot prints); format: in vivo, mouse
Method: We analyzed rotarod task of mice by an Economex Rotarod (Colombus Instruments, USA) weekly during the light phase of the 12 h light/12 h dark cycle as described previously (Adachi et al., 2001). We performed three trials, and recorded the longest duration on the rod for every mouse. We stopped the timer when the mouse fell from the rod or after an arbitrary limit of 180 seconds. We measured cage activity while each mouse was in a transparent acrylic cage (16×30×14 cm). We used an AB system (Neuroscience, Japan) with an infrared ray sensor monitor to measure spontaneous motor activity. We automatically totaled and recorded all measurements for 24 hours per week at 10-min intervals. […] Leuprorelin was administrated as follows. 100 μg of Leuprorelin acetate was suspended in a solution containing D-mannitol, which was subcutaneously injected to the mice every two weeks from five weeks of age until the end of the analysis. To the control group, only suspension was administrated. […] That is to say, motor impairment assessed by rotarod and cage activity was far milder in the Leuprorelin-administrated male AR-97Q mice as compared with the control group, and motor dysfunction was hardly shown in the Leuprorelin-administrated group (FIGS. 5A, B, C and D).

CCCCCCC(=O)O[C@H]1CC[C@H]2[C@@H]3CCC4=CC(=O)CC[C@]4(C)[C@H]3CC[C@]12C [testosterone, testosterone enanthate]
body weight (female AR-97Q mice; FIG. 6A, #7-8, testosterone-administered group vs testosterone-administered normal mice or control (oil) group, p<0.0001): significant difference
rotarod task (female AR-97Q mice; FIG. 6B, #7-8, testosterone-administered group vs testosterone-administered normal mice or control (oil) group, p<0.0001): significant difference
cage activity (female AR-97Q mice; FIG. 6C, #2-6, testosterone-administered group vs testosterone-administered normal mice or control (oil) group, p<0.0001): significant difference
survival rate (female AR-97Q mice; FIG. 6D, #7-8, testosterone-administered group vs testosterone-administered normal mice or control (oil) group, p<0.0001): significant difference
symptoms, pathologic findings and nuclear localization of the mutant protein (female AR-97Q mice; female AR-97Q mice, 20 μg testosterone enanthate s.c. weekly from 4 weeks of age, vs sesame-oil control group): drastically exacerbated
weight loss (female AR-97Q mice; female AR-97Q mice, FIG. 6A, control group hardly showed weight loss): significant weight loss
life-span (female AR-97Q mice; female AR-97Q mice, FIG. 6D): affected
muscle atrophy and body size (female AR-97Q mice; female AR-97Q mice, FIG. 6E, #2-6, 14-week-old): marked muscle atrophy and reduction in body size; also recorded: severe muscular atrophy
foot print analysis (female AR-97Q mice; female AR-97Q mice, FIG. 6F, not detected in sesame oil-administered mice): exhibited motor weakness and dragged their hind legs
motor impairment assessed by rotarod and cage activity (female AR-97Q mice; female AR-97Q mice, compared with control mice, FIGS. 6B and C): significantly worsened
serum testosterone levels ([1]; line #2-6, n=3): 158.0 ± 70.7 ng/dL
serum testosterone levels ([1]; line #7-8, n=4): 305.3 ± 182.3 ng/dL

CCNC(=O)[C@@H]1CCCN1C(=O)[C@H](CCCNC(=N)N)NC(=O)[C@H](CC(C)C)NC(=O)[C@@H](CC(C)C)NC(=O)[C@H](Cc1ccc(O)cc1)NC(=O)[C@H](CO)NC(=O)[C@H](Cc1c[nH]c2ccccc12)NC(=O)[C@H](Cc1c[nH]cn1)NC(=O)[C@@H]1CCC(=O)N1 [Leuprorelin]
serum testosterone value [2]: undetectable low level
effect of inhibiting the secretion of testosterone, relative to castration [3]: same level
rotarod task (male AR-97Q mice; FIG. 5B, #7-8, Leuprorelin-administered group vs control (vehicle) group, n=6): significant difference
cage activity (male AR-97Q mice; FIG. 5C, #7-8, Leuprorelin-administered group vs control (vehicle) group, n=6): significant difference
body size (male AR-97Q mice; FIG. 5E, #4-6, 12-week-old, control group showed severe muscular atrophy): normal
symptoms (male AR-97Q mice; male AR-97Q mice, 100 μg Leuprorelin acetate s.c. every two weeks from five weeks of age, vs control group (suspension only)): remarkable improvement
motor dysfunction (male AR-97Q mice; male AR-97Q mice, 100 μg s.c. every two weeks): hardly shown
motor impairment assessed by rotarod and cage activity (male AR-97Q mice; male AR-97Q mice, 100 μg s.c. every two weeks, compared with the control group): far milder
reduction in body size (male AR-97Q mice; male AR-97Q mice, FIG. 5E, #4-6, 12-week-old): remarkably improved
motor weakness (foot prints) (male AR-97Q mice; male AR-97Q mice, FIG. 5F, #4-6, 12-week-old): improved
